From article PMC7918798, “Coumarins from Seseli devenyense Simonk.: Isolation by Liquid–Liquid Chromatography and Potential Anxiolytic Activity Using an In Vivo Zebrafish Larvae Model” (International Journal of Molecular Sciences, 2021)
Entries after “also recorded” stand apart in the source; their conditions may differ.

Columns and labels:
5-dpf zebrafish larvae [1] = assay: Zebrafish larvae light/dark transition challenge: locomotor activity and thigmotaxis (anxiolytic activity assay, Phase 2); type: in vivo, Danio rerio; details: for distance moved by the larvae in the central arena / time spent in the central area: dark phase vs light phase, concentration not stated; for anxiolytic activity (authors' overall statement): zebrafish larvae model
Protocol: (§1) The research protocol was adopted after Schnorr et al. (2012). The anxiolytic activity was evaluated in 24-well plates. The inner and outer zones of the well were delineated according to Schnorr et al. (2012). […] It could be also described as decreasing thigmotaxis. 1% DMSO in E3 solution was used as the negative control, 10 μM diazepam was used as the positive control. 32 larvae were used for each concentration.
(§2) The experimental procedure was divided into three stages: • (a) Preincubation: larvae were pre-incubated in a 1500 μL solution of tested compounds in individual wells of a 24-well plate at 28.5 °C, in dark, for 30 min. • (b) Acclimatization (min 0–10): plates were placed in an automated video recording bench station (ViewPoint, Lyon, France). Larvae were allowed to acclimatize to the test apparatus for 10 min. During this period, lights were kept on. • (c) Visual motor challenge (min 11–95): this stage experiment was divided into two phases: Phase 1—continuous illumination: larvae were subjected to continuous light for 40 min, with the purpose to determine the spontaneous locomotor activity and thigmotaxis behavior (before applying the factor causing the anxiety). Phase 2—light/dark transition: larvae were subjected to three cycles, each involving the 10-min lighting phase (continuous light) and the 5-min dark phase (anxiogenic factor).

[2] = Shake-flask partition coefficient in HEMWat biphasic solvent systems; type: physicochemical
Protocol: The screening for suitable biphasic solvent systems to isolate the target coumarins from Seseli devenyense methanolic fruit extract (SDMFE) was performed by shake-flask experiments. The partition coefficient (Pi), defined as the ratio of the concentration of a solute in the stationary phase to its concentration in the mobile phase, was used as the screening parameter. The experimental protocol was previously descried by Widelski et al. (2018). Briefly, 1 mg of crude extract was dissolved in 4 mL of biphasic solvent systems obtained by mixing various volumes of hexane, ethyl acetate, methanol and water (HEMWat). After vigorous shaking, the flasks were left until the complete separation of the layers. Then, equal volumes of the upper and lower phase (0.5 mL) were taken, evaporated to dryness, dissolved again in methanol (1.0 mL) and analyzed by HPLC-DAD analysis, as descried below.
The preliminary analysis of the SDMFE, determination of the partition coefficient values and purity of collected fractions were assessed by HPLC-DAD. The HPLC-DAD analyses were performed on a Shimadzu HPLC (Shimadzu, Tokyo, Japan) equipped with automatic degasser (DGU-20A3R), quaternary pump (LC-20AD), auto-sampler (SIL-20AHT) and diode array detector (SPD-M20A). The separations were carried out on an Agilent Zorbax Eclipse XDB-C18 (Agilent, Santa Clara, CA, USA) (250 mm × 4.6 mm, 5 μm) column with a mobile phase consisting of water (solvent A) and methanol (solvent B). The following gradient was applied: 0 min: 50% B; 5 min: 60% B; 25 min: 80% B; 30–35 min: 100% B. The flow-rate was 1 mL/min; the column temperature was set at 25 °C. The injection volume of sample was 10 μL and detection was carried out at 320 nm.

5-dpf zebrafish larvae [3] = assay: Zebrafish larvae 40 min continuous illumination: spontaneous locomotor activity and thigmotaxis (Phase 1); type: in vivo, Danio rerio; details: for spontaneous locomotor activity (average distance moved): 40 min continuous illumination
Protocol: as §1, §2

[4] = dark phase vs DMSO-treated group in dark phase, 9 μM
[5] = dark phase vs light phase within same group, 9 μM
[6] = dark phase vs light phase within same group, 15 μM
[7] = dark phase vs light phase within same group, 30 μM
[8] = dark phase vs light phase within same group, 1.5 μM
[9] = dark phase vs light phase within same group, 3 μM
[10] = dark phase vs light phase within same group, 6 μM
[11] = dark phase vs light phase within same group, 12.5 μM
[12] = dark phase vs light phase within same group, 25 μM
[13] = dark phase vs DMSO-treated group in dark phase, diazepam 10 μM
[14] = dark phase vs light phase within same group, diazepam 10 μM
[15] = light phase vs DMSO-treated group in light phase, diazepam 10 μM
[16] = 40 min continuous illumination vs DMSO-treated control group, diazepam 10 µM

With `CCCCCCCC(=O)O[C@H]1Cc2c(ccc3ccc(=O)oc23)OC1(C)C` [octanoyllomatin] the “percentage of distance moved in central area” value (5-dpf zebrafish larvae [1]; [4]) was “significant increases”, the “percentage of time spent in central area” value (5-dpf zebrafish larvae [1]; [4]) was “significant increases” and the “percentage of time spent in central area” value (5-dpf zebrafish larvae [1]; dark phase vs DMSO-treated group in dark phase, 15 μM) was “significant increases”. For the same compound, the “locomotor activity (average distance moved per 1-min time bin)” value (5-dpf zebrafish larvae [1]; dark phase vs DMSO-treated group in dark phase, 30 μM) was “significant decreases”, the “locomotor activity (average distance moved per 1-min time bin)” value (5-dpf zebrafish larvae [1]; [5]) was “increase” and the “percentage of distance moved in central area” value (5-dpf zebrafish larvae [1]; [5]) was “increase”. The “percentage of time spent in central area” value (5-dpf zebrafish larvae [1]; [5]) was “increase”, the “locomotor activity (average distance moved per 1-min time bin)” value (5-dpf zebrafish larvae [1]; [6]) was “increase” and the “percentage of distance moved in central area” value (5-dpf zebrafish larvae [1]; [6]) was “increase”. For the same compound, the “percentage of time spent in central area” value (5-dpf zebrafish larvae [1]; [6]) was “increase”, the “percentage of distance moved in central area” value (5-dpf zebrafish larvae [1]; [7]) was “increase” and the “percentage of time spent in central area” value (5-dpf zebrafish larvae [1]; [7]) was “increase”. The “distance moved by the larvae in the central arena” value (5-dpf zebrafish larvae [1]) was “significantly increased”, the “time spent in the central area” value (5-dpf zebrafish larvae [1]) was “significantly increased” and the “percentage of time spent in central area” value (5-dpf zebrafish larvae [1]; light phase vs DMSO-treated group in light phase, 30 μM) was “decrease”. The “anxiolytic activity (authors' overall statement)” value (5-dpf zebrafish larvae [1]) was “highest anxiolytic activity”, the “Partition Coefficients (Pi)” value ([2]; solvent system III, hexane/ethyl acetate/methanol/water 5/2/5/2 (v/v/v/v)) was 2.01 and the “spontaneous locomotor activity (average distance moved)” value (5-dpf zebrafish larvae [3]; all concentrations (9, 15, 30 µM)) was “has not influenced”.

In the case of `CC1(C)Oc2ccc3ccc(=O)oc3c2[C@H](O)[C@@H]1O` [cis-khellactone], the “percentage of time spent in central area” value (5-dpf zebrafish larvae [1]; dark phase vs DMSO-treated group in dark phase, 1.5 μM) was “significant increases”, the “percentage of time spent in central area” value (5-dpf zebrafish larvae [1]; dark phase vs DMSO-treated group in dark phase, 3 μM) was “significant increases” and the “percentage of time spent in central area” value (5-dpf zebrafish larvae [1]; [4]) was “significant increases”. For the same compound, the “percentage of time spent in central area” value (5-dpf zebrafish larvae [1]; dark phase vs DMSO-treated group in dark phase, 12.5 μM) was “significant increases”, the “percentage of time spent in central area” value (5-dpf zebrafish larvae [1]; dark phase vs DMSO-treated group in dark phase, 25 μM) was “significant increases” and the “percentage of distance moved in central area” value (5-dpf zebrafish larvae [1]; dark phase vs DMSO-treated group in dark phase, all tested concentrations (1.5, 3, 6, 9, 12.5, 25 μM)) was “not observed”. For the same compound, the “locomotor activity (average distance moved per 1-min time bin)” value (5-dpf zebrafish larvae [1]; [8]) was “increase”, the “percentage of distance moved in central area” value (5-dpf zebrafish larvae [1]; [8]) was “increase” and the “percentage of time spent in central area” value (5-dpf zebrafish larvae [1]; [8]) was “increase”. The “locomotor activity (average distance moved per 1-min time bin)” value (5-dpf zebrafish larvae [1]; [9]) was “increase”, the “percentage of time spent in central area” value (5-dpf zebrafish larvae [1]; [9]) was “increase” and the “locomotor activity (average distance moved per 1-min time bin)” value (5-dpf zebrafish larvae [1]; [10]) was “increase”. For the same compound, the “percentage of distance moved in central area” value (5-dpf zebrafish larvae [1]; [10]) was “increase”, the “locomotor activity (average distance moved per 1-min time bin)” value (5-dpf zebrafish larvae [1]; [5]) was “increase” and the “percentage of distance moved in central area” value (5-dpf zebrafish larvae [1]; [5]) was “increase”. For the same compound, the “locomotor activity (average distance moved per 1-min time bin)” value (5-dpf zebrafish larvae [1]; [11]) was “increase”, the “percentage of distance moved in central area” value (5-dpf zebrafish larvae [1]; [11]) was “increase” and the “percentage of time spent in central area” value (5-dpf zebrafish larvae [1]; [11]) was “increase”. For the same compound, the “locomotor activity (average distance moved per 1-min time bin)” value (5-dpf zebrafish larvae [1]; [12]) was “increase”, the “percentage of distance moved in central area” value (5-dpf zebrafish larvae [1]; [12]) was “increase” and the “percentage of time spent in central area” value (5-dpf zebrafish larvae [1]; [12]) was “increase”. The “percentage of time spent in central area” value (5-dpf zebrafish larvae [1]; light phase vs DMSO-treated group in light phase, 6 μM) was “significant increase”, the “percentage of time spent in central area” value (5-dpf zebrafish larvae [1]; light phase vs DMSO-treated group in light phase, 9 μM) was “significant increase” and the “locomotor activity (average distance moved per 1-min time bin)” value (5-dpf zebrafish larvae [1]; light phase vs DMSO-treated group in light phase, all tested concentrations (1.5, 3, 6, 9, 12.5, 25 μM)) was “not noticed”. The “anxiolytic activity (authors' overall statement)” value (5-dpf zebrafish larvae [1]) was “weakest activity”, the “Partition Coefficients (Pi)” value ([2]; solvent system I, hexane/ethyl acetate/methanol/water 2/5/2/5 (v/v/v/v)) was 2.50 and the “spontaneous locomotor activity (average distance moved)” value (5-dpf zebrafish larvae [3]; all tested concentrations (1.5, 3, 6, 9, 12.5, 25 µM)) was “has not influenced”. The “time spent in the central arena” value (5-dpf zebrafish larvae [3]; 40 min continuous light, one-way ANOVA between tested groups, 1.5, 3, 6, 9, 12.5, 25 µM) was “not showed”.

In the case of `CN1C(=O)CN=C(c2ccccc2)c2cc(Cl)ccc21` [diazepam, reference compound], the “locomotor activity (average distance moved per 1-min time bin)” value (5-dpf zebrafish larvae [1]; [13]) was “significant decreases; also recorded: decrease”, the “percentage of distance moved in central area” value (5-dpf zebrafish larvae [1]; [13]) was “significant increases” and the “percentage of time spent in central area” value (5-dpf zebrafish larvae [1]; [13]) was “significant increases”. The “percentage of distance moved in central area” value (5-dpf zebrafish larvae [1]; [14]) was “increase”, the “percentage of time spent in central area” value (5-dpf zebrafish larvae [1]; [14]) was “increase” and the “distance moved by the larvae in the central arena” value (5-dpf zebrafish larvae [1]) was “significantly increased”. The “time spent in the central area” value (5-dpf zebrafish larvae [1]) was “significantly increased”, the “percentage of distance moved in central area” value (5-dpf zebrafish larvae [1]; [15]) was “significant increase” and the “percentage of time spent in central area” value (5-dpf zebrafish larvae [1]; [15]) was “significant increase”. The “percentage of distance moved in the central arena” value (5-dpf zebrafish larvae [3]; [16]) was “increased” and the “percentage of time spent in the central arena” value (5-dpf zebrafish larvae [3]; [16]) was “increase”.
